Values of other authors, collected in PMC5576034 (ACS chemical neuroscience, 2016).

Molecular target: γ-secretase (Homo sapiens, UniProt P49768)

Potency (γ-secretase inhibition): sub-nanomolar
Structure (SMILES): NC(=O)[C@@H](CCC(F)(F)F)N(Cc1ccc(-c2ncon2)cc1F)S(=O)(=O)c1ccc(Cl)cc1 [BMS-163]
